Reference: PubChem BioAssay (NCI)
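In this assay, cells in 96-well plates receive the compound at five concentrations for 48 hours. Endpoints are linearly interpolated between the surrounding concentrations. At the TGI there is no net growth.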

Tests used:
Assay in all cases: growth of human tumour cells (NCI), 48 h
SR leukemia = tested on: SR leukemia
KM12 colon = tested on: KM12 colon
EKVX NSCLC = tested on: EKVX NSCLC
SK-MEL-28 melanoma = tested on: SK-MEL-28 melanoma
SN12C renal = tested on: SN12C renal
RXF 393 renal = tested on: RXF 393 renal
HT29 colon = tested on: HT29 colon
MDA-N = tested on: MDA-N
HOP-62 NSCLC = tested on: HOP-62 NSCLC
OVCAR-8 ovarian = tested on: OVCAR-8 ovarian
A498 renal = tested on: A498 renal
OVCAR-5 ovarian = tested on: OVCAR-5 ovarian
SW-620 colon = tested on: SW-620 colon
NCI/ADR-RES ovarian = tested on: NCI/ADR-RES ovarian
OVCAR-3 ovarian = tested on: OVCAR-3 ovarian
NCI-H23 lung = tested on: NCI-H23 lung
IGROV1 ovarian = tested on: IGROV1 ovarian
UACC-257 melanoma = tested on: UACC-257 melanoma
K-562 leukemia = tested on: K-562 leukemia
U251 CNS = tested on: U251 CNS
UACC-62 melanoma = tested on: UACC-62 melanoma
SNB-75 CNS = tested on: SNB-75 CNS
CCRF-CEM leukemia = tested on: CCRF-CEM leukemia
HCT-15 colon = tested on: HCT-15 colon
SF-539 CNS = tested on: SF-539 CNS
LOX IMVI melanoma = tested on: LOX IMVI melanoma
PC-3 prostate = tested on: PC-3 prostate
HCT-116 colon = tested on: HCT-116 colon
MCF7 breast = tested on: MCF7 breast
786-0 renal = tested on: 786-0 renal
MDA-MB-231 breast = tested on: MDA-MB-231 breast
NCI-H460 lung = tested on: NCI-H460 lung
COLO 205 colon = tested on: COLO 205 colon
DU-145 prostate = tested on: DU-145 prostate
HS 578T breast = tested on: HS 578T breast
SNB-19 CNS = tested on: SNB-19 CNS
SK-MEL-5 melanoma = tested on: SK-MEL-5 melanoma
ACHN renal = tested on: ACHN renal
M14 melanoma = tested on: M14 melanoma
TK-10 renal = tested on: TK-10 renal
SF-295 CNS = tested on: SF-295 CNS
T-47D breast = tested on: T-47D breast
BT-549 breast = tested on: BT-549 breast
NCI-H522 lung = tested on: NCI-H522 lung
MOLT-4 leukemia = tested on: MOLT-4 leukemia
SK-MEL-2 melanoma = tested on: SK-MEL-2 melanoma
SF-268 CNS = tested on: SF-268 CNS
OVCAR-4 ovarian = tested on: OVCAR-4 ovarian
CAKI-1 renal = tested on: CAKI-1 renal
HCC-2998 colon = tested on: HCC-2998 colon
HOP-92 NSCLC = tested on: HOP-92 NSCLC
UO-31 renal = tested on: UO-31 renal
HL-60(TB) leukemia = tested on: HL-60(TB) leukemia
A549 NSCLC = tested on: A549 NSCLC
MDA-MB-435 = tested on: MDA-MB-435
NCI-H226 lung = tested on: NCI-H226 lung
MALME-3M melanoma = tested on: MALME-3M melanoma
RPMI-8226 leukemia = tested on: RPMI-8226 leukemia
SK-OV-3 ovarian = tested on: SK-OV-3 ovarian

Nc1c(Cl)ncnc1N[C@@H]1C[C@H]1CO
TGI (SR leukemia): > 100 µM
TGI (KM12 colon): > 100 µM
TGI (EKVX NSCLC): > 100 µM
TGI (SK-MEL-28 melanoma): > 100 µM
TGI (SN12C renal): > 100 µM
TGI (RXF 393 renal): > 100 µM
TGI (HT29 colon): > 100 µM
TGI (MDA-N): > 100 µM
TGI (HOP-62 NSCLC): > 100 µM
TGI (OVCAR-8 ovarian): > 100 µM
TGI (A498 renal): > 100 µM
TGI (OVCAR-5 ovarian): > 100 µM
TGI (SW-620 colon): > 100 µM
TGI (NCI/ADR-RES ovarian): > 100 µM
TGI (OVCAR-3 ovarian): > 100 µM
TGI (NCI-H23 lung): > 100 µM
TGI (IGROV1 ovarian): > 100 µM
TGI (UACC-257 melanoma): > 100 µM
TGI (K-562 leukemia): > 100 µM
TGI (U251 CNS): > 100 µM
TGI (UACC-62 melanoma): > 100 µM
TGI (SNB-75 CNS): > 100 µM
TGI (CCRF-CEM leukemia): > 100 µM
TGI (HCT-15 colon): > 100 µM
TGI (SF-539 CNS): > 100 µM
TGI (LOX IMVI melanoma): > 100 µM
TGI (PC-3 prostate): > 100 µM
TGI (HCT-116 colon): > 100 µM
TGI (MCF7 breast): > 100 µM
TGI (786-0 renal): > 100 µM
TGI (MDA-MB-231 breast): > 100 µM
TGI (NCI-H460 lung): > 100 µM
TGI (COLO 205 colon): > 100 µM
TGI (DU-145 prostate): > 100 µM
TGI (HS 578T breast): > 100 µM
TGI (SNB-19 CNS): > 100 µM
TGI (SK-MEL-5 melanoma): > 100 µM
TGI (ACHN renal): > 100 µM
TGI (M14 melanoma): > 100 µM
TGI (TK-10 renal): > 100 µM
TGI (SF-295 CNS): > 100 µM
TGI (T-47D breast): > 100 µM
TGI (BT-549 breast): > 100 µM
TGI (NCI-H522 lung): > 100 µM
TGI (MOLT-4 leukemia): > 100 µM
TGI (SK-MEL-2 melanoma): > 100 µM
TGI (SF-268 CNS): > 100 µM
TGI (OVCAR-4 ovarian): > 100 µM
TGI (CAKI-1 renal): > 100 µM
TGI (HCC-2998 colon): > 100 µM
TGI (HOP-92 NSCLC): > 100 µM
TGI (UO-31 renal): > 100 µM
TGI (HL-60(TB) leukemia): > 100 µM
TGI (A549 NSCLC): > 100 µM
TGI (MDA-MB-435): > 100 µM

CCOP(=O)(OCC)c1c(C(=O)OC)cc(=O)[nH]c1-c1ccc(C)cc1
TGI (SR leukemia): 11.5 µM
TGI (KM12 colon): 33.6 µM
TGI (EKVX NSCLC): 17 µM
TGI (SK-MEL-28 melanoma): 34.7 µM
TGI (SN12C renal): > 57 µM
TGI (RXF 393 renal): 27.3 µM
TGI (NCI-H226 lung): 29.6 µM
TGI (HT29 colon): 42.1 µM
TGI (MDA-N): > 61.1 µM
TGI (HOP-62 NSCLC): 41.7 µM
TGI (OVCAR-8 ovarian): > 47.1 µM
TGI (A498 renal): 53.8 µM
TGI (OVCAR-5 ovarian): 20.5 µM
TGI (SW-620 colon): 23.5 µM
TGI (NCI/ADR-RES ovarian): > 57.5 µM
TGI (OVCAR-3 ovarian): 25.2 µM
TGI (MALME-3M melanoma): 19.9 µM
TGI (NCI-H23 lung): 33.5 µM
TGI (IGROV1 ovarian): 20.6 µM
TGI (UACC-257 melanoma): 30.1 µM
TGI (K-562 leukemia): > 78.4 µM
TGI (U251 CNS): 29.3 µM
TGI (UACC-62 melanoma): 20.4 µM
TGI (SNB-75 CNS): 29.3 µM
TGI (CCRF-CEM leukemia): 6.91 µM
TGI (HCT-15 colon): 27.2 µM
TGI (SF-539 CNS): 23 µM
TGI (LOX IMVI melanoma): > 100 µM
TGI (PC-3 prostate): 34.2 µM
TGI (HCT-116 colon): > 51.1 µM
TGI (MCF7 breast): > 49.7 µM
TGI (786-0 renal): > 53.4 µM
TGI (MDA-MB-231 breast): 76.3 µM
TGI (NCI-H460 lung): 43.4 µM
TGI (COLO 205 colon): 15.2 µM
TGI (DU-145 prostate): 17.5 µM
TGI (HS 578T breast): 49.1 µM
TGI (SNB-19 CNS): > 54.3 µM
TGI (SK-MEL-5 melanoma): 28.8 µM
TGI (ACHN renal): 9.45 µM
TGI (M14 melanoma): 27.8 µM
TGI (TK-10 renal): 27.9 µM
TGI (SF-295 CNS): 40.9 µM
TGI (T-47D breast): 18.1 µM
TGI (RPMI-8226 leukemia): 19.8 µM
TGI (BT-549 breast): 20.3 µM
TGI (NCI-H522 lung): 3.03 µM
TGI (MOLT-4 leukemia): 20.6 µM
TGI (SK-MEL-2 melanoma): 32.4 µM
TGI (SF-268 CNS): > 52.1 µM
TGI (OVCAR-4 ovarian): 22.5 µM
TGI (CAKI-1 renal): 19 µM
TGI (HCC-2998 colon): 33.5 µM
TGI (HOP-92 NSCLC): 12.3 µM
TGI (SK-OV-3 ovarian): 49.4 µM
TGI (UO-31 renal): 13.8 µM
TGI (A549 NSCLC): 31.5 µM
TGI (MDA-MB-435): 37.4 µM
